According to patent US10301280B2 (Plexxikon Inc., priority 2012, dated 2019):

Experiments:
c-kit mutant D816V = c-kit mutant D816V (Homo sapiens (Human), UniProt P10721, D816V/DEL694-753); assay: c-Kit mutant D816V biochemical assay (AlphaScreen); conditions: c-kit D816V biochemical inhibitory activity
Method: The c-kit mutant D816V (or kinase domain thereof) is an active kinase in AlphaScreen. IC50 values are determined with respect to inhibition of c-Kit mutant D816V kinase activity, where inhibition of phosphorylation of a peptide substrate is measured as a function of compound concentration. Compounds to be tested were dissolved in DMSO to a concentration of 20 mM. These were diluted 30 μl into 120 μl of DMSO (4 mM) and 1 μl was added to an assay plate. These were then serially diluted 1:3 (50 μl to 100 μl DMSO) for a total of 8 points. Plates were prepared such that each kinase reaction is 20 μl in 1× kinase buffer (25 mM HEPES, pH 7.2, 8 mM MgCl2, 2 mM MnCl2, 50 mM NaCl, 0.01% Brij, 1 mM DTT, 0.01% BSA), 5% DMSO and 10 μM ATP. Substrate was 30 nM biotin-(E4Y)10 (EMD Millipore, Cat#12-440). C-kit mutant D816V kinase was at 0.75 ng per sample. After incubation of the kinase reaction for 30 minutes at room temperature, 5 μl of donor beads (Streptavidin coated beads (Perkin Elmer Life Science) final concentration 7.5 μg/ml) in stop buffer (25 mM Hepes pH 7.5, 100 mM EDTA, 0.01% BSA) was added, the sample was mixed and incubated for 20 minutes at room temperature before adding 5 μl of acceptor beads (PY20 coated beads (Perkin Elmer Life Science) final concentration 7.5 ug/ml) in stop buffer. The samples were incubated for 60 minutes at room temperature and the signal per well was read on EnVision reader. Phosphorylated substrate results in binding of the PY20 antibody and association of the donor and acceptor beads such that signal correlates with kinase activity. The signal vs. compound concentration was used to determine the IC50.
Recombinant c-kit mutant D816V (residues 551-934, kinase insertion domain residues 694-753 deleted) with a 6x-histidine N-terminal tag was expressed in E. coli Arctic Express (DE3) RIL (Stratagene). Cells were grown in Terrific Broth (TB) media to an OD600 of 0.6 at 37° C. at which temperature was reduced to 10° C., protein was induced with 1.0 mM IPTG for 18 hours and harvested by centrifugation at 8000×g for 20 minutes. Cells were re-suspended in 0.1M KPO4 pH 8.0, 250 mM NaCl, 10% Glycerol, 0.75% NP-40, 25 mM Imidazole, 5 mM BME with 0.2 mg/ml Lysosyme, 2.0 mM PMSF, 25 μg/ml DNAse I, incubated in ice for 30 minutes and lyzed with a cell disruptor (MicroFluidics). The lysate was clarified by centrifugation at 20,000×g for 2 hours. The protein was captured with Talon resin (Clontech). Contaminating proteins were washed off with 25 mM Tris-HCl pH 8.3, 250 mM NaCl, 15% Glycerol, 1% Triton X-100, and protein eluted using 100 mM EDTA. The protein was further purified using Gel Filtration column 26/600 Superdex 200 (GE) in 50 mM Tris-HCl, pH 8.0, 250 mM NaCl, 15% Glycerol, 5 mM BME. The protein was aliquoted and flash-frozen in liquid Nitrogen.

[1] = tested on: BaF3-FL KIT D816V or BaF3-FL KIT V560G/D816V cell line; assay: Cell-based assays of c-Kit mutant kinase activity (cell growth, ATPlite); conditions: at least one of the c-kit cell assays of Example 26
Procedure, shortened: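 IC50 derived from ATP-content luminescence (ATPlite) after three-day compound exposure at 37° C., 5% CO2. Cells: BaF3 rendered growth-dependent on full-length human KIT D816V or V560G/D816V, 1×10^4 per well, RPMI plus 10% FBS; 8 points, 1:3 steps, maximum 10 μM final, 0.2% DMSO.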

Chain of c-kit mutant D816V (P10721 other isoform, or with tags, fused parts or gaps D816V/del 694-753): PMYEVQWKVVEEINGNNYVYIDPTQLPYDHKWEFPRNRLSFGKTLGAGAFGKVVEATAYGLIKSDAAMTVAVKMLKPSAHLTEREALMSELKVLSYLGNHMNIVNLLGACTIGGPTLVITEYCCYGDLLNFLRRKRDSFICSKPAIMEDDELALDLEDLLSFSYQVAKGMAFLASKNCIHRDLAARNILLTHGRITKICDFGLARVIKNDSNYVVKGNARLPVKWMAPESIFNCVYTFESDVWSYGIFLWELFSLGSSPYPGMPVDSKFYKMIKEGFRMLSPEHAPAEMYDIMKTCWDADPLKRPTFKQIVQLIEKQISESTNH

| Structure (SMILES) | IC50 (c-kit mutant D816V) | IC50 [1] |
| --- | --- | --- |
| NC(=O)c1cccc(NC(=O)c2cnc3[nH]c(-c4ccccc4)cc3c2)c1 [P-2003, N-(3-carbamoylphenyl)-2-phenyl-1H-pyrrolo[2,3-b]pyridine-5-carboxamide] | 10 to 200 µM | – |
| O=C(Nc1cnc2[nH]c(-c3ccccc3)cc2c1)c1cc(C2CC2)n[nH]1 [P-2009, 3-cyclopropyl-N-(2-phenyl-1H-pyrrolo[2,3-b]pyridin-5-yl)-1H-pyrazole-5-carboxamide] | 10 to 200 µM | – |
| O=C(Nc1cnc2[nH]c(-c3ccccc3)cc2c1)c1ccncn1 [P-2011, N-(2-phenyl-1H-pyrrolo[2,3-b]pyridin-5-yl)pyrimidine-4-carboxamide] | 10 to 200 µM | – |
| Cc1onc(C(=O)Nc2cnc3[nH]c(-c4ccccc4)cc3c2)c1C [P-2017, 4,5-dimethyl-N-(2-phenyl-1H-pyrrolo[2,3-b]pyridin-5-yl)isoxazole-3-carboxamide] | 10 to 200 µM | – |
| N#CCc1cccc(C(=O)Nc2cnc3[nH]c(-c4ccc(F)cc4)cc3c2)c1 [P-2021, 3-(cyanomethyl)-N-[2-(4-fluorophenyl)-1H-pyrrolo[2,3-b]pyridin-5-yl]benzamide] | 10 to 200 µM | – |
| N#Cc1cccc(C(=O)Nc2cnc3[nH]c(-c4ccc(F)cc4)cc3c2)c1 [P-2025, 3-cyano-N-[2-(4-fluorophenyl)-1H-pyrrolo[2,3-b]pyridin-5-yl]benzamide] | 10 to 200 µM | – |
| Cc1n[nH]c(C(=O)Nc2cnc3[nH]nc(-c4ccc(F)cc4)c3c2)c1C [P-2041, N-(3-(4-fluorophenyl)-1H-pyrazolo[3,4-b]pyridin-5-yl)-3,4-dimethyl-1H-pyrazole-5-carboxamide] | 0.0001 to 1 µM | < 10 µM |
| O=C(Nc1cnc2[nH]c(-c3ccc(F)cc3)cc2c1)c1n[nH]c2c1CCC2 [P-2056, N-[2-(4-fluorophenyl)-1H-pyrrolo[2,3-b]pyridin-5-yl]-1,4,5,6-tetrahydrocyclopenta[c]pyrazole-3-carboxamide] | 0.0001 to 1 µM | < 10 µM |
| Cc1n[nH]c(C(=O)Nc2cnc3[nH]c(C#CCF)cc3c2)c1C [P-2063, N-[2-(3-fluoroprop-1-ynyl)-1H-pyrrolo[2,3-b]pyridin-5-yl]-3,4-dimethyl-1H-pyrazole-5-carboxamide] | 0.0001 to 1 µM | < 10 µM |
| Cc1n[nH]c(C(=O)Nc2cnc3[nH]c(-c4cccc(OCCN5CCOCC5)c4)cc3c2)c1C [P-2066, 3,4-dimethyl-N-[2-[3-(2-morpholinoethoxy)phenyl]-1H-pyrrolo[2,3-b]pyridin-5-yl]-1H-pyrazole-5-carboxamide] | 0.0001 to 1 µM | < 10 µM |
| Cc1cc(C(=O)Nc2cnc3[nH]c(C#CCF)cc3c2)[nH]n1 [P-2068, N-[2-(3-fluoroprop-1-ynyl)-1H-pyrrolo[2,3-b]pyridin-5-yl]-3-methyl-1H-pyrazole-5-carboxamide] | 1 to 10 µM | < 10 µM |
| Cc1[nH]nc(NC(=O)c2cnc3[nH]c(-c4ccccc4)cc3c2)c1C [P-2071] | 10 to 200 µM | – |
| Cc1[nH]nc(C(=O)Nc2cnc3cc(-c4ccc(F)cc4)nn3c2)c1C [P-2072, N-[2-(4-fluorophenyl)pyrazolo[1,5-a]pyrimidin-6-yl]-4,5-dimethyl-1H-pyrazole-3-carboxamide] | 1 to 10 µM | < 10 µM |
| COc1ccc(-c2cc3cc(NC(=O)c4[nH]nc(C)c4C)cnc3[nH]2)c(Cl)c1 [P-2075, N-[2-(2-chloro-4-methoxy-phenyl)-1H-pyrrolo[2,3-b]pyridin-5-yl]-3,4-dimethyl-1H-pyrazole-5-carboxamide] | 0.0001 to 1 µM | < 10 µM |
| COc1ccc(-c2cc3cc(NC(=O)c4[nH]nc(C)c4C)cnc3[nH]2)c(F)c1 [P-2076, N-[2-(2-fluoro-4-methoxy-phenyl)-1H-pyrrolo[2,3-b]pyridin-5-yl]-3,4-dimethyl-1H-pyrazole-5-carboxamide] | 0.0001 to 1 µM | < 10 µM |
| COc1ccc(Cl)c(-c2cc3cc(NC(=O)c4[nH]nc(C)c4C)cnc3[nH]2)c1 [P-2077, N-[2-(2-chloro-5-methoxy-phenyl)-1H-pyrrolo[2,3-b]pyridin-5-yl]-3,4-dimethyl-1H-pyrazole-5-carboxamide] | 1 to 10 µM | < 10 µM |
| Cc1n[nH]c(C(=O)Nc2cnc3[nH]c(-c4cc(F)cc(N5CCOCC5)c4)cc3c2)c1C [P-2078, N-[2-(3-fluoro-5-morpholino-phenyl)-1H-pyrrolo[2,3-b]pyridin-5-yl]-3,4-dimethyl-1H-pyrazole-5-carboxamide] | 0.0001 to 1 µM | < 10 µM |
| Cc1[nH]nc(C(=O)Nc2cnc3[nH]c(C4=CCOCC4)cc3c2)c1C [P-2265, N-(2-(3,6-dihydro-2H-pyran-4-yl)-1H-pyrrolo[2,3-b]pyridin-5-yl)-4,5-dimethyl-1H-pyrazole-3-carboxamide] | – | < 10 µM |
| Cc1[nH]nc(C(=O)Nc2cnc3[nH]c(C4=CC(C)(C)NC(C)(C)C4)cc3c2)c1C [P-2266, 4,5-dimethyl-N-(2-(2,2,6,6-tetramethyl-1,2,3,6-tetrahydropyridin-4-yl)-1H-pyrrolo[2,3-b]pyridin-5-yl)-1H-pyrazole-3-carboxamide] | – | < 10 µM |
| Cc1[nH]nc(C(=O)Nc2cnc3[nH]c(-c4cccc5c4OC(F)(F)O5)cc3c2)c1C [P-2267, N-(2-(2,2-difluorobenzo[d][1,3]dioxol-4-yl)-1H-pyrrolo[2,3-b]pyridin-5-yl)-4,5-dimethyl-1H-pyrazole-3-carboxamide] | – | < 10 µM |
| Cn1ncc2c(C(=O)Nc3cnc4[nH]c(-c5ccccc5)cc4c3)cccc21 [P-2298, 1-methyl-N-(2-phenyl-1H-pyrrolo[2,3-b]pyridin-5-yl)indazole-4-carboxamide] | – | < 10 µM |
| O=C(Nc1cnc2[nH]c(-c3ccccc3)cc2c1)c1cccc2[nH]ccc12 [P-2299, N-(2-phenyl-1H-pyrrolo[2,3-b]pyridin-5-yl)-1H-indole-4-carboxamide] | – | < 10 µM |
| O=C(Nc1cnc2[nH]c(-c3ccccc3)cc2c1)c1cccc2[nH]cnc12 [P-2300, N-(2-phenyl-1H-pyrrolo[2,3-b]pyridin-5-yl)-1H-benzimidazole-4-carboxamide] | – | < 10 µM |
| Cc1cc2cc(NC(=O)c3[nH]nc(C)c3C)cnc2[nH]1 [P-2302, 3,4-dimethyl-N-(2-methyl-1H-pyrrolo[2,3-b]pyridin-5-yl)-1H-pyrazole-5-carboxamide] | – | < 10 µM |
| O=C(O)c1ccc(C(=O)Nc2cnc3[nH]c(-c4ccccc4)cc3c2)cc1 [P-2303, 4-[(2-phenyl-1H-pyrrolo[2,3-b]pyridin-5-yl)carbamoyl]benzoic acid] | – | < 10 µM |
| Cc1n[nH]c(C(=O)N(C)c2cnc3[nH]c(-c4ccccc4)cc3c2)c1C [P-2304, N,3,4-trimethyl-N-(2-phenyl-1H-pyrrolo[2,3-b]pyridin-5-yl)-1H-pyrazole-5-carboxamide] | – | < 10 µM |
| Cc1n[nH]c(C(=O)Nc2cnc3[nH]c(-c4cccc5c4OCCO5)cc3c2)c1C [P-2305, N-[2-(2,3-dihydro-1,4-benzodioxin-5-yl)-1H-pyrrolo[2,3-b]pyridin-5-yl]-3,4-dimethyl-1H-pyrazole-5-carboxamide] | – | < 10 µM |
| Cc1n[nH]c(C(=O)Nc2cnc3[nH]c(-c4cnn(C5CCN(C(=O)OC(C)(C)C)CC5)c4)cc3c2)c1C [P-2306, tert-butyl 4-[4-[5-[(3,4-dimethyl-1H-pyrazole-5-carbonyl)amino]-1H-pyrrolo[2,3-b]pyridin-2-yl]pyrazol-1-yl]piperidine-1-carboxylate] | – | < 10 µM |
| Cc1n[nH]c(C(=O)Nc2cnc3[nH]c(C4=CCCCC4)cc3c2)c1C [P-2307, N-[2-(cyclohexen-1-yl)-1H-pyrrolo[2,3-b]pyridin-5-yl]-3,4-dimethyl-1H-pyrazole-5-carboxamide] | – | < 10 µM |
